Reference: PubChem BioAssay AID2060906 (Molecular Pharmacology Branch, DTP, NCI, 2025)

System: 485176-168-R4-J1-PDC complex spheroid growth
Assay: Anticancer human tumor 485176-168-R4-J1-PDC patient-derived pancreatic adenocarcinoma cell line growth inhibition [RAS]
Conditions: for viability, T/C: stronger effect = lower value
Description: RAS pathway inhibitors in Combinations in Complex Spheroids
A high-throughput screen of multi-cell type tumor spheroids was designed to identify active combinations of RAS pathway inhibitors and targeted small molecules. Complex spheroids include a stromal component modeled by human endothelial cells (HUVEC) and fibroblasts modeled by human mesenchymal stem cells (MSCs). The concentration ranges selected for each drug and investigational agent were based upon clinically achievable concentrations if the clinical Cmax of the agent was known.
Compounds. The drugs and investigational agents: abemaciclib (NSC768073), cobimetinib (NSC768068), divarasib (GDC6063, NSC841802), docetaxel (NSC628503), GDC-1971 (RLY-1971, NSC841576), gemcitabine (NSC613327), inavolisib (NSC800729), ipatasertib (NSC767898), KB-0742 (NSC834161), MRTX-1133 (NSC836407), osimertinib (NSC779217), RMC-4630 (NSC839698), RMC-6236 (NSC851965), RMC-6291 (NSC852671), Ro-3306 (NSC812927), sapanisertib (NSC764658), SN-38 (NSC673596), staurosporine (NSC755774), SY5609 (NSC837396), and tovorafenib (DAY101, NSC766906), were obtained from the National Cancer Institute (NCI) Developmental Therapeutics Program Chemical Repository. The FDA-approved anticancer drug set is available from the NCI Developmental Therapeutics Program. […] The stock solutions were prepared in dimethyl sulfoxide (DMSO, Sigma-Aldrich, St. Louis, MO, cat. D2650) at 800-fold the tested concentration and stored at -70 degrees C prior to their use. All drugs and investigational agents were tested over a range starting from a high concentration at or near the clinical Cmax and decreasing in half-log increments. If the clinical Cmax for an agent had not been determined, the highest concentration tested was 10 microM.
Cell Culture. All cells were maintained in an incubator at 37 degrees C and 5% CO2 with 95% humidity. The PDC lines were cultured according to standard operating procedures established by the NCI PDMR. All PDCs were thawed and cultured in Matrigel-coated flasks prepared with a working solution of 1X Ham's F-12 nutrient mix, without supplementation (Invitrogen, Waltham, MA, cat. 11765054), 100 U/mL penicillin-streptomycin (Invitrogen, cat. 15140122), and 2.5% Matrigel (Corning Inc., Corning, NY, cat. 354248) for the first three passages. The 362531-283-R-J2-PDC and 782815-120-R-J1-PDC lines were cultured in 6C/Colon 1B media, which includes advanced DMEM/F-12 (Thermo Fisher Scientific, cat. 12634028), 10 mM HEPES (Thermo Fisher Scientific, cat. 15630080), 1X GlutaMAX supplement (Thermo Fisher Scientific, cat. 35050061), 0.1 mg/mL primocin (InvivoGen, San Diego, CA, cat. ant-pm-2), 10% defined fetal bovine serum, heat inactivated (HyClone Laboratories Inc., Logan, UT, cat. SH30070.03HI), 50% L-WRN conditioned media (ATCC, cat. CRL-3276), 1.25 mM N-Acetyl-L-cysteine (Sigma-Aldrich, cat. A9165), 10 mM nicotinamide (Sigma-Aldrich, cat. N0636), 1X B-27 supplement (Thermo Fisher Scientific, cat. 17504044), 1X N-2 supplement (Thermo Fisher Scientific, cat. 17502048), 50 ng/mL human EGF (Thermo Fisher Scientific, cat. PHG0311), and 10 microM Y-27632 dihydrochloride (Tocris Bioscience, cat. 1254). The K12877-001-R-J1-PDC line was cultured in 6I media, which includes all 6C/Colon 1B media plus 10 ng/mL human FGF-10 (PeproTech, cat. 100-26), 1 ng/mL human FGF-2 (PeproTech, cat. 100-18B), 1 µM prostaglandin E2 (Tocris Bioscience, cat. 2296), […] hydrocortisone (Sigma-Aldrich, cat. H4001), and […] bovine insulin (Sigma-Aldrich, cat. I6634). The K86415-001-R-J1-PDC line was cultured in 6D media, which includes all 6C/Colon 1B media components minus the L-WRN conditioned media. The 485176-168-R4-J1-PDC was cultured in PANC media, which includes all 6C/Colon 1B media plus 100 ng/mL human FGF-10 (PeproTech, cat. 100-26), 500 nM SB-431542 (Selleckchem, cat. S1067), and 10 nM gastrin (Tocris Bioscience, cat. 3006). […]
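Also: spheroids exposed to compounds for seven days before readout.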
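For viability, T/C in this document: luminescence viability expressed relative to DMSO vehicle wells set as 100%.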

SMILES: C=CC(=O)Nc1cc(Nc2nccc(-c3cn(C)c4ccccc34)n2)c(OC)cc1N(C)CCN(C)C
- viability, T/C (compound 0.00316 µM): 96.8% [middle of 4 runs]
- viability, T/C (compound 0.01 µM): 97.1% [middle of 4 runs]
- viability, T/C (compound 0.0316 µM): 96.3% [middle of 4 runs]
- viability, T/C (compound 0.316 µM): 93.2% [middle of 4 runs]
- viability, T/C (compound 1 µM): 64.5% [middle of 4 runs]
- IC50 (curve of compound): > 1000 nM

SMILES: CC(C)n1nc(-c2ccc3oc(N)nc3c2)c2c(N)ncnc21 + CCn1c(-c2cc(N3CCN(C)CC3)cnc2C(C)OC)c2c3cc(ccc31)-c1csc(n1)CC(NC(=O)C1CC1C)C(=O)N1CCCC(N1)C(=O)OCC(C)(C)C2
- IC50 (curve of first compound, second compound 0.000949 µM): 20.3 nM
- IC50 (curve of first compound, second compound 0.003 µM): 23 nM
- IC50 (curve of first compound, second compound 0.00949 µM): 18.5 nM
- IC50 (curve of first compound, second compound 0.03 µM): 13.8 nM
- IC50 (curve of first compound, second compound 0.0949 µM): 10.9 nM
- IC50 (curve of first compound, second compound 0.3 µM): 9.46 nM
- viability, T/C (second compound 0.000949 µM, first compound 0.000316 µM): 98.5%
- viability, T/C (second compound 0.000949 µM, first compound 0.001 µM): 93.7%
- viability, T/C (second compound 0.000949 µM, first compound 0.00316 µM): 76.8%
- viability, T/C (second compound 0.000949 µM, first compound 0.01 µM): 70.4%
- viability, T/C (second compound 0.000949 µM, first compound 0.0316 µM): 37.4%
- viability, T/C (second compound 0.000949 µM, first compound 0.1 µM): 19.2%
- viability, T/C (second compound 0.003 µM, first compound 0.000316 µM): 96.8%
- viability, T/C (second compound 0.003 µM, first compound 0.001 µM): 89.6%
- viability, T/C (second compound 0.003 µM, first compound 0.00316 µM): 93.3%
- viability, T/C (second compound 0.003 µM, first compound 0.01 µM): 65.9%
- viability, T/C (second compound 0.003 µM, first compound 0.0316 µM): 44.4%
- viability, T/C (second compound 0.003 µM, first compound 0.1 µM): 18.5%
- viability, T/C (second compound 0.00949 µM, first compound 0.000316 µM): 97.1%
- viability, T/C (second compound 0.00949 µM, first compound 0.001 µM): 89%
- viability, T/C (second compound 0.00949 µM, first compound 0.00316 µM): 76.9%
- viability, T/C (second compound 0.00949 µM, first compound 0.01 µM): 63.9%
- viability, T/C (second compound 0.00949 µM, first compound 0.0316 µM): 38.4%
- viability, T/C (second compound 0.00949 µM, first compound 0.1 µM): 19.1%
- viability, T/C (second compound 0.03 µM, first compound 0.000316 µM): 95.9%
- viability, T/C (second compound 0.03 µM, first compound 0.001 µM): 81%
- viability, T/C (second compound 0.03 µM, first compound 0.00316 µM): 63%
- viability, T/C (second compound 0.03 µM, first compound 0.01 µM): 63.3%
- viability, T/C (second compound 0.03 µM, first compound 0.0316 µM): 34.8%
- viability, T/C (second compound 0.03 µM, first compound 0.1 µM): 23.6%
- viability, T/C (second compound 0.0949 µM, first compound 0.000316 µM): 94.3%
- viability, T/C (second compound 0.0949 µM, first compound 0.001 µM): 84.8%
- viability, T/C (second compound 0.0949 µM, first compound 0.00316 µM): 61.5%
- viability, T/C (second compound 0.0949 µM, first compound 0.01 µM): 57.3%
- viability, T/C (second compound 0.0949 µM, first compound 0.0316 µM): 30.9%
- viability, T/C (second compound 0.0949 µM, first compound 0.1 µM): 17.4%
- viability, T/C (second compound 0.3 µM, first compound 0.000316 µM): 81.1%
- viability, T/C (second compound 0.3 µM, first compound 0.001 µM): 77%
- viability, T/C (second compound 0.3 µM, first compound 0.00316 µM): 68.2%
- viability, T/C (second compound 0.3 µM, first compound 0.01 µM): 50.2%
- viability, T/C (second compound 0.3 µM, first compound 0.0316 µM): 25.9%
- viability, T/C (second compound 0.3 µM, first compound 0.1 µM): 16.1%
